Test: Lipophilicity, log D at pH 7.4
Type: physicochemical
Conditions: buffer

Compared with `CC(C)(C)[C@H](NC(=O)n1c(=O)n(CCN2CCCC2)c2ccccc21)C(N)=O`, `CC(C)CCn1c(=O)n(C(=O)N[C@H](C(N)=O)C(C)(C)C)c2ccccc21` is higher in logD: 1.5 for the first, 3.4 for the second.

Compared with `CC(C)(C)[C@H](NC(=O)n1c(=O)n(CC2(O)CCOCC2)c2ccccc21)C(N)=O`, `CC(C)(C)[C@H](NC(=O)n1c(=O)n(CCC2(O)CCOCC2)c2ccccc21)C(N)=O` is higher in logD: 1.6 for the first, 1.9 for the second.

Going from `CC(C)(C)[C@H](NC(=O)n1c(=O)n(CCC2CCOCC2)c2ccccc21)C(N)=O` to `CC(C)(C)[C@H](NC(=O)n1c(=O)n(CC2CCCO2)c2ccccc21)C(N)=O` (stereo not given in full), the logD falls from 2.4 to 2.1.

`CC(C)(O)Cn1c(=O)n(C(=O)N[C@H](C(N)=O)C(C)(C)C)c2ccccc21` and `CC(C)(O)CCn1c(=O)n(C(=O)N[C@H](C(N)=O)C(C)(C)C)c2ccccc21` are the same in logD: 2.2 for the first, 2.2 for the second.

In the case of `CN(C)CCn1c(=O)n(C(=O)N[C@H](C(N)=O)C(C)(C)C)c2ccccc21`, the logD is reported as 1.5.

Test: Bioavailability in rat at 3 mg/kg, po
Type: ADME, organism-based
Conditions: in vivo

For `CC(C)(O)CCn1c(=O)n(C(=O)N[C@H](C(N)=O)C(C)(C)C)c2ccccc21`, the bioavailability was 33%.

Reference: ChEMBL document CHEMBL1150312, “The SAR studies of novel CB2 selective agonists, benzimidazolone derivatives” (Bioorg Med Chem Lett, 2008)
